From article PMC4648043, “Development of Small-Molecule Trypanosoma brucei N-Myristoyltransferase Inhibitors: Discovery and Optimisation of a Novel Binding Mode” (Chemmedchem, 2015)
pEC50, pIC50: −log10 of the molar value. Where two headings read alike, the source gives them in different places.

Legend:
T. brucei = T. brucei parasite growth assay; type: cell-based, Trypanosoma brucei; details: for pEC50: Trypanosoma brucei, mean of two or more determinations; for Selectivity ratio: hNMT IC50/T. brucei cell assay EC50
Protocol: (§1) Parasite and NMT assays: These were carried out as described previously.[8–10]

hMRC5 [1] = test: MRC5 cell assay; type: cell-based; details: Homo sapiens, mean of two or more determinations
[2] = In vitro intrinsic clearance assay (CLint (m)); type: in vitro ADME; details: female CD1 mouse liver microsomes, 0.5 μM compound
Protocol: […]; 0.5 mg (mL 50 mM potassium phosphate buffer)^−1, pH 7.4), and the reaction was started by the addition of excess NADPH (8 mg (mL 50 mM potassium phosphate buffer)^−1, pH 7.4). Immediately, at time zero, then at 3, 6, 9, 15 and 30 min, an aliquot (50 μL) of the incubation mixture was removed and mixed with acetonitrile (100 μL) to stop the reaction. Internal standard was added to all samples, the samples were centrifuged (10 min, 5 °C, 3270 g) to sediment precipitated protein and the plates then sealed prior to UPLC–MS/MS analysis using a Quattro Premier XE (Waters Corp., USA).
XLfit (IDBS, UK) was used to calculate the exponential decay and consequently the rate constant (k) from the ratio of peak area of test compound to internal standard at each time point. The rate of intrinsic clearance (CLint: [mL min^−1 (g liver)^−1]) of each test compound was then calculated using Equation (1), in which V [mL (mg protein)^−1] is the incubation volume per mg protein added, and microsomal protein yield is taken as 52.5 mg protein per gram of liver. Verapamil (0.5 μM) was used as a positive control to confirm acceptable assay performance.

[3] = In vitro plasma protein binding, equilibrium dialysis; type: in vitro ADME; details: female CD1 mouse plasma, equilibrium dialysis 5 h; read-out: PPB (converted)
Protocol: In vitro plasma protein binding experiments: In brief, a 96-well equilibrium dialysis apparatus was used to determine the free fraction in plasma for each compound (HT Dialysis LLC, Gales Ferry, CT, USA). Membranes (12-14 kDa cutoff) were conditioned in deionised water for 60 min, followed by conditioning in 80:20 deionised water/EtOH for 20 min, and then rinsed in isotonic buffer before use. Female CD1 mouse plasma was removed from the freezer and allowed to thaw on the day of experiment. Thawed plasma was then centrifuged (Allegra […], Beckman Coulter, USA, 10 min, 5 °C, 3270 g), spiked with test compound (10 μg g^-1), and 150 μL aliquots (n=6 replicate determinations) loaded into the 96-well equilibrium dialysis plate. Dialysis versus isotonic buffer (150 μL) was carried out for 5 h in a temperature-controlled incubator at ∼37 °C (Barworld Scientific Ltd., UK) using an orbital microplate shaker at 125 rpm (Barworld Scientific). At the end of the incubation period, aliquots of plasma or buffer were transferred to micronic tubes (Micronic B.V., the Netherlands), and the composition in each tube was balanced with control fluid such that the volume of buffer to plasma was the same. […] All samples were analysed by UPLC-MS/MS on a Quattro Premier XE Mass Spectrometer (Waters Corp., USA). The unbound fraction was determined as the ratio of the peak area in buffer to that in plasma.

hNMT = molecular target: T1, hNMT (Homo sapiens, UniProt P30419); test: human NMT enzyme inhibition assay; type: biochemical; details: mean of two or more determinations
T1 sequence (P30419 1-496): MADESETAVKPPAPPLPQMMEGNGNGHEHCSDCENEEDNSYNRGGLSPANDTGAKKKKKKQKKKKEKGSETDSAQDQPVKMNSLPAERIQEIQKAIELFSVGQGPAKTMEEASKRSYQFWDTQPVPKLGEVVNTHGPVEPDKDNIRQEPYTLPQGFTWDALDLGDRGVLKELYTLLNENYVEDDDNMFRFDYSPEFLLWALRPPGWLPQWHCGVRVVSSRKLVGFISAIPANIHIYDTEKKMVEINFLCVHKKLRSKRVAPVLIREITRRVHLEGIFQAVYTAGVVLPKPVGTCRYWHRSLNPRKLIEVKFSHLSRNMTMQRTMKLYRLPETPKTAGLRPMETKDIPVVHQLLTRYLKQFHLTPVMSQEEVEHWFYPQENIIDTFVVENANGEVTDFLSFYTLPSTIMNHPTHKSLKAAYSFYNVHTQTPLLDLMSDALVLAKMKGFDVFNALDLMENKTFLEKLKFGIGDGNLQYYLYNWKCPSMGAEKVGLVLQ
Protocol: as §1

TbNMT = molecular target: T2, TbNMT (Trypanosoma brucei brucei, UniProt Q388H8); test: biochemical; type: biochemical; details: for LE TbNMT (ligand efficiency): calculated as 0.6 ln(IC50)/(heavy atom count); for pIC50: mean of two or more determinations
T2 sequence (Q388H8 1-446): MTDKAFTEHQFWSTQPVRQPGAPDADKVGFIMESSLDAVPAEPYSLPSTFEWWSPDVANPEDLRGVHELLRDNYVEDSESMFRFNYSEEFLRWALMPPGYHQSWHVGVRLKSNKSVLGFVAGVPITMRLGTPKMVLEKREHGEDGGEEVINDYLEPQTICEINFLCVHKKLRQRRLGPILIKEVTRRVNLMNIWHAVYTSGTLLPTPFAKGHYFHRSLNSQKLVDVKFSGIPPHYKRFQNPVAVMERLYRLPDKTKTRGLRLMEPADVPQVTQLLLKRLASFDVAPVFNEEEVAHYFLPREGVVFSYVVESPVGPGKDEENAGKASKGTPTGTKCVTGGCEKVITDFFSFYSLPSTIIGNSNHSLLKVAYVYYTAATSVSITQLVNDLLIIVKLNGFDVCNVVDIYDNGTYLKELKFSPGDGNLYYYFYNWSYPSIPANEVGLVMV
Protocol: as §1

hMRC5 [4] = tested on: hMRC5; set-up: method as in PMID 20360736; details: previously published inhibitor; cited from earlier work

| pEC50 (T. brucei) | CLint (m) [2] | fraction unbound at 5 h, 10 μg g^−1 [3] | pIC50 (hNMT) | LE TbNMT (ligand efficiency) (TbNMT) | pIC50 (TbNMT; read-out: IC50 TbNMT) | pIC50 (TbNMT; IC50 TbNMT) | SMILES | pEC50 (hMRC5 [1]) | Selectivity ratio (T. brucei) | pEC50 (hMRC5 [4]) |
| --- | --- | --- | --- | --- | --- | --- | --- | --- | --- | --- |
| 6.72 | 10 mL min^−1 (g liver)^−1 | 0.18 |  |  |  |  | Cc1cc(CN2C(=O)COc3c(CCCCC4CCN(C)CC4)cccc32)no1 [Compound 41, 4-((5-Methylisoxazol-3-yl)methyl)-8-(4-(1-methylpiperidin-4-yl)butyl)-2H-benzo[b][1,4]oxazin-3(4H)-one] | 4.72 |  |  |
| 8.15 | 12 mL min^−1 (g liver)^−1 | 0.06 |  |  |  |  | Cc1cc(CN2C(=O)COc3cc(CCCCC4CCN(C)CC4)ccc32)no1 [Compound 44, 4-((5-Methylisoxazol-3-yl)methyl)-7-(4-(1-methylpiperidin-4-yl)butyl)-2H-benzo[b][1,4]oxazin-3(4H)-one] | 5.00 |  |  |
| 6.39 | 2.0 mL min^−1 (g liver)^−1 |  |  |  |  |  | Cc1cc(CN2C(=O)COc3c(CCCCC4CCNCC4)cccc32)no1 [Compound 39, 4-((5-Methylisoxazol-3-yl)methyl)-8-(4-(piperidin-4-yl)butyl)-2H-benzo[b][1,4]oxazin-3(4H)-one] | < 4.30 |  |  |
| 7.10 |  |  | 6.00 | >0.38 | > 8.70 |  | Cc1cc(CN2C(=O)COc3c(CCCCN4CCCN(C)CC4)cccc32)no1 [Compound 40, 4-(4-(4-((5-Methylisoxazol-3-yl)methyl)-3-oxo-3,4-dihydro-2H-benzo[b][1,4]oxazin-8-yl)butyl)homopiperazine-1-methyl] | 4.62 | 13 |  |
|  |  |  |  |  |  |  | Cc1nn(C)c(C)c1NS(=O)(=O)c1c(Cl)cc(-c2ccnc(N3CCNCC3)c2)cc1Cl [DDD85646] |  |  | 6.40 |
| < 4.30 |  |  | < 4.00 | 0.42 |  | 4.92 | CCOC(=O)CN1C(=O)COc2ccccc21 [Compound 14, Ethyl 2-(3-oxo-2H-benzo[b][1,4]oxazin-4(3H)-yl)acetate] | < 4.30 |  |  |
| 6.46 | 7.0 mL min^−1 (g liver)^−1 |  | 4.62 | 0.38 | 8.05 |  | Cc1cc(CN2C(=O)COc3cc(CCCOC[C@@H]4CCN(C)C4)ccc32)no1 [Compound 42, (R)-4-((5-Methylisoxazol-3-yl)methyl)-7-(3-((1-methylpyrrolidin-3-yl)methoxy)propyl)-2H-benzo[b][1,4]oxazin-3(4H)-one] | < 4.30 | 69 |  |
| < 4.30 |  |  | 4.55 | 0.29 | 4.66 |  | COc1cc(C2SCC(=O)N2Cc2ccccc2)ccc1O (centres unmarked) [Compound 1, 3-Benzyl-2-(4-hydroxy-3-methoxyphenyl)thiazolidin-4-one] | < 4.30 |  |  |
